Experimental data as given in article PMC10029155, “Harnessing protein sensing ability of electrochemical biosensors via a controlled peptide receptor–electrode interface” (Journal of Nanobiotechnology, 2023).

How the values were obtained:
[1] = target: T1, cathepsin B (Homo sapiens, UniProt P07858); assay: SWV electrochemical binding to cathepsin B (relative current change, binding constant); settings: for relative binding affinity to cathepsin B (specificity): 125 nM protein, peptide 50 μM or phage ~10^12 PFU/mL immobilized
T1 construct: Cathepsin B proteins, purified from human liver (~ 27.5 kDa, > 95% purity); purchased ENZO (NY, USA); host or cells: purified from human liver
Method: A conventional three-electrode system including an Au working electrode (diameter: 5 mm, surface area: 19.6 mm^2), a Pt counter electrode, and an Ag/AgCl reference electrode, was used for the electrochemical measurements. The EIS, CV, and SWV measurements were conducted in the presence of 2.5 mM ferro/ferricyanide in 1 M KNO3 using a CHI 660E instrument (CH Instruments, Austin, TX, USA) at 25 °C. The EIS measurements were carried out by applying a 10 mV signal with a frequency ranging from 0.01 Hz to 100 kHz. The CV tests were performed between − 0.6 and 0.6 V (scan range) at a scan rate of 100 mVs^−1. The SWV tests were carried out in the potential range of − 0.4 to 0.6 V with an amplitude of 5 mV, frequency of 10 Hz, and a scan interval of 4 mV. The relative current change (ΔI%) was obtained by considering that the peak current decreased after the immobilization of the peptides and/or phages and cathepsin B protein interaction using the following equation:1 ΔI%=I0-I/I0×100 where I0 refers to phage-on-a-sensor, peptide-on-a-sensor, or peptide-on-a-AuNPs/MXene sensor and/or peptide oxidation current before cathepsin B introduction, and I refers to Au-protein oxidation current after cathepsin B introduction.

[2] = system: cathepsin S (CTSS); assay: SWV specificity test against CTSS; format: binding; settings: 125 nM protein
Method: (§1) A conventional three-electrode system including an Au working electrode (diameter: 5 mm, surface area: 19.6 mm^2), a Pt counter electrode, and an Ag/AgCl reference electrode, was used for the electrochemical measurements. The EIS, CV, and SWV measurements were conducted in the presence of 2.5 mM ferro/ferricyanide in 1 M KNO3 using a CHI 660E instrument (CH Instruments, Austin, TX, USA) at 25 °C. The EIS measurements were carried out by applying a 10 mV signal with a frequency ranging from 0.01 Hz to 100 kHz. The CV tests were performed between − 0.6 and 0.6 V (scan range) at a scan rate of 100 mVs^−1. […]
(§2) The electrochemical response of the phage sensor for cathepsin B detection was evaluated by the specificity analysis of the developed phage. […] The relative binding affinity of the phage-on-a-sensor with different phage concentrations was measured. […] The binding constants of the developed phage sensor and the relative current change (ΔI%) with different cathepsin B concentrations were measured by SWV.
(§3) To select potential high-affinity peptides from the phage clones, the five synthetic peptides were immobilized on the Au electrode via streptavidin–biotin and MUA-EDC/NHS coupling methods. Each preparation step of the peptide sensor was recorded using CV, EIS, and SWV (Additional file 1: Fig. S3a–c), and the relative binding affinities for cathepsin B were measured by SWV. […]

[3] = system: cathepsin L1 (CTSL1); assay: SWV specificity test against CTSL1; format: binding; settings: 125 nM protein
Method: as §1, §2, §3

[4] = system: BSA; assay: SWV specificity test against BSA (control); format: binding; settings: 125 nM protein, negative control protein
Method: as §1, §2, §3

[5] = target: T1, cathepsin B; assay: ELISA binding of peptide-displaying phage clones to immobilized biotinylated cathepsin B; settings: 405 nm
Method: A 96 well streptavidin-coated microplate was washed three times with PBS, and the biotinylated cathepsin B was immobilized on it with mild shaking at 25 °C for 1 h. The unbound proteins were removed and blocked with a blocking buffer (5% BSA in NaHCO3) at 25 °C for 1 h. The wells were washed six times with 0.1% PBST, and 100 µL of the amplified phages (10^11 PFU/mL), i.e., the capture receptors, were added and incubated for 1 h at 25 °C. After washing six times with PBST again, the HRP-conjugated anti-M13 monoclonal antibodies (1:5000 dilution with blocking buffer), i.e., the detecting antibodies, were added and incubated at 25 °C for 1 h. The residual solution was discarded, and the microplate was washed again with the same buffer. Freshly prepared HRP substrate (ABTS) was added, and the absorbance was measured at 405 nm using a Multiskan FC microplate photometer (Thermo Scientific, Waltham, MA, USA).
The binding affinities of the selected phage clones for the immobilized cathepsin B were tested by ELISA. For these experiments, 250 nM of cathepsin B or the same amount of BSA as a negative control was immobilized on a well, followed by 10^11 PFU/mL of phage addition. The relative binding affinity of each phage was detected using HRP-conjugated M13 antibodies. […] The CTSB 4-1 clone was the only phage with a high binding affinity to cathepsin B, motivating further characterization of its binding interaction to confirm its specific binding to cathepsin B with increasing cathepsin B concentration (Fig. 2c).

HRHRRHRHRKHHK - biotin [CTSB BP4]
relative binding affinity to cathepsin B (specificity) [1]: much lower binding affinity for cathepsin B than for CTSB BP3
relative binding affinity to CTSS (specificity) [2]: non-specific binding affinity
relative binding affinity to CTSL1 (specificity) [3]: non-specific binding affinity
relative binding affinity to BSA (specificity) [4]: non-specific binding affinity

WDMWPSMDWKAE [CTSB 4-1, M13 phage clone displaying …, identified in four rounds of the biopanning]
relative binding affinity for cathepsin B (ELISA) ([5]; 250 nM cathepsin B immobilized, 10^11 PFU/mL phage, HRP-conjugated anti-M13 antibody, ABTS, 25 °C, 1 h, triplicate): strong cathepsin B binding
dose response of binding with cathepsin B concentration ([5]; cathepsin B 3.906 to 250 nM, ELISA): dose-dependent binding affinity with increasing cathepsin B concentration
SC50 ([5]; cathepsin B 6.25 to 250 nM, ELISA, printed in picture Fig. 2c): 44.27 nM

WDMWPSMDWKAEK - biotin [CTSB BP1]
relative binding affinity for all the tested proteins, comparison between peptides ([1]; 125 nM cathepsin B, CTSS, CTSL1 or BSA, peptide 50 μM): comparable to those of CTSB BP2 and CTSB BP5
relative binding affinity to cathepsin B (specificity) [1]: did not bind to cathepsin B
